Laboratory results published in patent US7070780B2, “Treatment of demyelinating autoimmune disease with ordered peptides” (Board of Trustees of the Leland Stanford Junior University, priority 1999, dated 2006).
“Also recorded” adds a separate entry of the source.

Tests used:
[1] = system: experimental autoimmune encephalomyelitis in Lewis rats; assay: EAE treatment in Lewis rats immunized with MBPp85–99; assay type: in vivo; settings: EAE induced with MBPp85–99, single intraperitoneal dose of 0.5 mg peptide in PBS at disease onset
Method: FIG. 1 is a graph depicting the prevention of EAE in rats treated with ordered peptides. […] Animals were injected with an emulsion of 0.1 mg of MBPp85–99 in complete Freund's adjuvant for EAE induction. Ten days later, when the clinical manifestations of disease became apparent, a single intra-peritoneal dose of peptide {SEQ ID NO:4} EYYKEYYKEYYK (squares), {SEQ ID NO:5} KYYKYYKYYKYY (triangles), or PBS (circles)was administered. Results are expressed as mean disease score of groups of six animals.
Animals. Female Lewis rats (6–8 weeks old), were purchased from Harlan Sprague Dawley (Indianapolis, Ind.)
Peptides. For immunization and disease reversal, peptides were synthesized on a peptide synthesizer (model 9050: MilliGen, Burlington, Mass.) by standard 9-fluorenylmethoxycarbonyl chemistry. Peptides were purified by HPLC. Structure was confirmed by amino acid analysis and mass spectroscopy. Peptides used for the experiments were: {SEQ ID NO:11} ENPVVHFFKNIVTPR (MBPp85–99), {SEQ ID NO:4} EYYKEYYKEYYK, {SEQ ID NO:5} KYYKYYKYYKYY.
EAE Induction. […] Experimental animals were scored as follows: 0, no clinical disease; 1, tail weakness or paralysis; 2, hind limb weakness; 3, hind limb paralysis; 4, forelimb weakness or paralysis; 5, moribund or dead animal.
EAE Treatment. Rats previously immunized with MBPp85–99 for EAE induction were scored from day eight after peptide injection. […]

[2] = system: anti-MBP antibodies; assay: Inhibition of autoantibody binding to MBP (anti-MBP antibodies affinity-purified from CNS lesions); settings: anti-MBP antibodies from CNS lesions of 12 post-mortem cases
Text: Previously, we have compared the structural requirements for autoantibody recognition to those of T cell clones reactive to MBP p87–99. Anti-MBP antibodies were affinity-purified from CNS lesions of 12 post-mortem cases studied. The MBP p87–99 peptide was immunodominant in all cases and it inhibited autoantibody binding to MBP by more than 95%. Residues contributing to autoantibody binding were located in a 10-amino acid segment p86–95 ({SEQ ID NO:9} VVHFFKNIVT) that also contained the MHC-T cell receptor contact residues for T cells recognizing MBP in the context of DRB1*1501 and DQB1*0602. In the epitope center, the same residues, {SEQ ID NO:10} VHFFK, were important for T cell binding and MHC recognition. Recently, the crystal structure of HLA-DR2 with MBPp85–99 was solved, confirming the prediction that K91 is the major TCR contact residue, while F90 is a major anchor into the hydrophobic P4 pocket of the MHC molecule.

Row | inhibition of autoantibody binding to MBP [2] | Substance | effect on EAE (mean disease score) [1]
1 | – | EYYKEYYKEYYK [ordered peptide of the repeated motif EYYK (n=3)] | prevents the development of EAE; also recorded: effective in preventing and treating experimental autoimmune encephalomyelitis
2 | more than 95% | MBP p87–99: peptide of residues 87–99 of myelin basic protein, immunodominant epitope (SRPHLIRLFSRDA; UniProt P02686 87-99, looked up, fragment) | –
